Measured values published in ChEMBL document CHEMBL1201862, “PubChem BioAssay data set” (2004).
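Each compound was tested at five concentrations against cells in 96-well plates for 48 hours. GI50 marks 50% less growth.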 Calls of active or inactive are those of the source. Cut-off read from the data, not from the text of the source: active = GI50 up to about 1.1 µM and inactive = higher.

Columns and labels:
Experiment in all cases: NCI tumour cell line growth inhibition, 48 h
SK-MEL-5 = tested on: SK-MEL-5
SF-539 = tested on: SF-539
SNB-19 = tested on: SNB-19
HCC 2998 = tested on: HCC 2998
SK-OV-3 = tested on: SK-OV-3
COLO 205 = tested on: COLO 205
SW-620 = tested on: SW-620
HOP-92 = tested on: HOP-92
A498 = tested on: A498
K562 = tested on: K562
UACC-257 = tested on: UACC-257
UACC-62 = tested on: UACC-62
MOLT-4 = tested on: MOLT-4
SF-295 = tested on: SF-295
LOX IMVI = tested on: LOX IMVI
Malme-3M = tested on: Malme-3M
HL-60 = tested on: HL-60
A549 = tested on: A549
OVCAR-4 = tested on: OVCAR-4
RPMI-8226 = tested on: RPMI-8226

Row | SMILES | GI50 (SK-MEL-5) | GI50 (SF-539) | GI50 (SNB-19) | GI50 (HCC 2998) | GI50 (SK-OV-3) | GI50 (COLO 205) | GI50 (SW-620) | GI50 (HOP-92) | GI50 (A498) | GI50 (K562) | GI50 (UACC-257) | GI50 (UACC-62) | GI50 (MOLT-4) | GI50 (SF-295) | GI50 (LOX IMVI) | GI50 (Malme-3M) | GI50 (HL-60) | GI50 (A549) | GI50 (OVCAR-4) | GI50 (RPMI-8226)
1 | CC1C2(C)OC(=N)C(C#N)(C(C)O2)C1(C#N)C#N (stereo not drawn) | 13.1 µM (inactive) | 22.1 µM (inactive) | > 10 µM (inactive) | 20.4 µM (inactive) | > 100 µM (inactive) | 12.1 µM (inactive) | 16.6 µM (inactive) | 16.9 µM (inactive) | 87.7 µM (inactive) | 34.9 µM (inactive) | 20.2 µM (inactive) | 19.8 µM (inactive) | 36 µM (inactive) | 90.2 µM (inactive) | 19.5 µM (inactive) | 25 µM (inactive) | 14.1 µM (inactive) | 79.1 µM (inactive) |  | 
2 | COC(=O)C(=O)C(C(=O)C(=O)Nc1ccc([N+](=O)[O-])cc1C#N)c1nc2ccc([N+](=O)[O-])cc2nc1O (stereo not drawn) |  | > 100 µM (inactive) | > 100 µM (inactive) |  | > 100 µM (inactive) | > 100 µM (inactive) | > 100 µM (inactive) | 93.1 µM (inactive) | 52.2 µM (inactive) | > 100 µM (inactive) | > 100 µM (inactive) | > 100 µM (inactive) | > 100 µM (inactive) | > 100 µM (inactive) | > 100 µM (inactive) | > 100 µM (inactive) | > 100 µM (inactive) | > 100 µM (inactive) | > 100 µM (inactive) | > 100 µM (inactive)
3 | CN(C)CCCNC(=O)c1cc(NC(=O)CCCn2c3ccccc3c3ccccc32)cn1C | 16.7 µM (inactive) | 71.3 µM (inactive) | 25 µM (inactive) |  | > 100 µM (inactive) | 21.9 µM (inactive) | > 100 µM (inactive) | 2.13 µM (inactive) | 17.7 µM (inactive) | 31.6 µM (inactive) |  | 20.8 µM (inactive) | 11.4 µM (inactive) | 25.9 µM (inactive) | 31 µM (inactive) | 17.2 µM (inactive) | 22.5 µM (inactive) | 20.7 µM (inactive) | 43.1 µM (inactive) | 17.1 µM (inactive)
4 | O=[N+]([O-])c1ccc(N/N=C(\c2ccccc2)c2ccccn2)nc1 | 1.85 µM (inactive) | 1.52 µM (inactive) | 9.48 µM (inactive) | 5.46 µM (inactive) | 4.86 µM (inactive) | < 0.0391 µM (active) | 0.223 µM (active) | 10.5 µM (inactive) | > 100 µM (inactive) |  | 0.262 µM (active) | 2.5 µM (inactive) |  | 5.32 µM (inactive) |  | 0.0367 µM (active) | < 0.01 µM (active) | 4.48 µM (inactive) | 18.7 µM (inactive) | 0.59 µM (active)
5 | COc1ccc(/N=C(/[N-]n2c(=O)c(C)nn(C)c2=S)N(c2ccc(OC)cc2)c2n[n+]3c(=O)c(C)nn(C)c3s2)cc1 | > 100 µM (inactive) | > 100 µM (inactive) | > 100 µM (inactive) |  |  | > 100 µM (inactive) | > 100 µM (inactive) | > 100 µM (inactive) | 93.3 µM (inactive) | > 100 µM (inactive) | > 100 µM (inactive) | > 100 µM (inactive) | > 100 µM (inactive) | > 100 µM (inactive) | > 100 µM (inactive) |  | > 100 µM (inactive) | > 100 µM (inactive) | > 100 µM (inactive) | > 100 µM (inactive)
6 | Cc1cn(C2CC(N)C(C(=O)O)O2)c(=O)[nH]c1=O (stereo not drawn) | > 100 µM (inactive) | > 100 µM (inactive) | > 100 µM (inactive) | > 100 µM (inactive) | > 100 µM (inactive) | > 100 µM (inactive) | > 100 µM (inactive) | > 100 µM (inactive) | > 100 µM (inactive) | > 100 µM (inactive) | > 100 µM (inactive) | > 100 µM (inactive) | > 100 µM (inactive) |  |  | > 100 µM (inactive) | > 100 µM (inactive) | > 100 µM (inactive) | > 100 µM (inactive) | > 100 µM (inactive)
7 | Cc1cc(NS(=O)(=O)c2ccc(Nc3c4ccccc4nc4c(C(=O)N5CCN(CCO)CC5)cccc34)cc2)no1 | > 100 µM (inactive) | > 100 µM (inactive) | > 100 µM (inactive) | 49 µM (inactive) | > 100 µM (inactive) | > 100 µM (inactive) | > 100 µM (inactive) | > 100 µM (inactive) | > 100 µM (inactive) | 57.8 µM (inactive) | > 100 µM (inactive) | > 100 µM (inactive) | 83.2 µM (inactive) | > 100 µM (inactive) | 39.5 µM (inactive) | > 100 µM (inactive) | 47.6 µM (inactive) | > 100 µM (inactive) | > 100 µM (inactive) | 
8 | CCOC(=O)C/C(N)=C(\C#N)C(=O)OCC | > 100 µM (inactive) | > 100 µM (inactive) | > 100 µM (inactive) |  | > 100 µM (inactive) | > 100 µM (inactive) | > 100 µM (inactive) | > 100 µM (inactive) | > 100 µM (inactive) | > 100 µM (inactive) |  | > 100 µM (inactive) | > 100 µM (inactive) | > 100 µM (inactive) | > 100 µM (inactive) | > 100 µM (inactive) | > 100 µM (inactive) | > 100 µM (inactive) |  | > 100 µM (inactive)
9 | COc1ccc(C)cc(O)c1=O | 67.8 µM (inactive) | 42.5 µM (inactive) | 95.1 µM (inactive) |  | > 100 µM (inactive) | 30.8 µM (inactive) | 44 µM (inactive) | 26.2 µM (inactive) | 38.4 µM (inactive) | 45.4 µM (inactive) | 33.2 µM (inactive) | 22.3 µM (inactive) | 9.06 µM (inactive) | 27.9 µM (inactive) | 11.9 µM (inactive) | 57.1 µM (inactive) | 19.1 µM (inactive) | > 100 µM (inactive) | 45 µM (inactive) | 39.6 µM (inactive)
10 | CCOc1ccc2ccccc2c1NC1=NCCO1 | 44.9 µM (inactive) | 49.3 µM (inactive) | 29.6 µM (inactive) | 38.5 µM (inactive) | 39.5 µM (inactive) | 36.6 µM (inactive) | 46.1 µM (inactive) | 15.3 µM (inactive) | 35.1 µM (inactive) | 19.8 µM (inactive) | 34.6 µM (inactive) | 39.4 µM (inactive) | 27.5 µM (inactive) | 19.1 µM (inactive) |  | 39.5 µM (inactive) | 19.9 µM (inactive) | 61 µM (inactive) | 26.8 µM (inactive) | 19.5 µM (inactive)
11 | NCCN1C(=O)C2C3c4ccccc4C(c4ccccc43)C2C1=O (stereo not drawn) | > 100 µM (inactive) | > 100 µM (inactive) | > 100 µM (inactive) | > 100 µM (inactive) | > 100 µM (inactive) | > 100 µM (inactive) | > 100 µM (inactive) | 28.2 µM (inactive) | > 100 µM (inactive) | > 100 µM (inactive) | > 100 µM (inactive) | > 100 µM (inactive) | > 100 µM (inactive) | > 100 µM (inactive) |  | > 100 µM (inactive) | > 100 µM (inactive) | > 100 µM (inactive) | > 100 µM (inactive) | > 100 µM (inactive)
12 | CO[C@]12C[C@@H](CNC(=O)c3cc(Br)c[nH]3)O[C@H]1NC(=O)N2 | > 100 µM (inactive) | > 100 µM (inactive) | > 100 µM (inactive) | > 100 µM (inactive) | > 100 µM (inactive) | > 100 µM (inactive) | > 100 µM (inactive) | > 100 µM (inactive) | > 100 µM (inactive) | > 100 µM (inactive) | > 100 µM (inactive) | > 100 µM (inactive) | > 100 µM (inactive) | > 100 µM (inactive) |  | > 100 µM (inactive) | > 100 µM (inactive) | > 100 µM (inactive) | > 100 µM (inactive) | > 100 µM (inactive)
13 | C1=C2C3=[N+](CCCC3)CC2Cc2sccc21 (stereo not drawn) | 57.7 µM (inactive) |  | 86.9 µM (inactive) |  | > 100 µM (inactive) | 67.1 µM (inactive) | > 100 µM (inactive) | 99.8 µM (inactive) | 47.6 µM (inactive) | > 100 µM (inactive) | 33.3 µM (inactive) | > 100 µM (inactive) | > 100 µM (inactive) | 66.5 µM (inactive) | > 100 µM (inactive) | 49.1 µM (inactive) | > 100 µM (inactive) | 30 µM (inactive) | 42.5 µM (inactive) | 
14 | COc1nc(N)nc2c1ncn2C1CC(O)C(CO)O1 (stereo not drawn) | > 100 µM (inactive) | > 100 µM (inactive) | > 100 µM (inactive) |  | > 100 µM (inactive) | > 100 µM (inactive) | > 100 µM (inactive) | > 100 µM (inactive) | > 100 µM (inactive) | > 100 µM (inactive) | > 100 µM (inactive) | > 100 µM (inactive) | > 100 µM (inactive) | > 100 µM (inactive) | > 100 µM (inactive) | > 100 µM (inactive) | > 100 µM (inactive) | > 100 µM (inactive) | > 100 µM (inactive) | > 100 µM (inactive)
15 | COc1cc(C2c3cc4c(cc3[C@@H](NCCN3CCCCC3)C3COC(=O)[C@H]23)OCO4)cc(OC)c1O (stereo partly drawn) | 0.325 µM (active) | 0.209 µM (active) | 0.323 µM (active) |  | 0.0526 µM (active) | 0.782 µM (active) | 0.621 µM (active) | 0.265 µM (active) | 0.237 µM (active) | 0.822 µM (active) | 2.93 µM (inactive) | 0.298 µM (active) | < 0.01 µM (active) | 0.0986 µM (active) | 0.204 µM (active) | 0.451 µM (active) | 0.0322 µM (active) | 0.0484 µM (active) | 0.27 µM (active) | 0.4 µM (active)
